Values joined by “and” are separate entries in the source; they are usually repeats but may differ in a detail not shown here. Equal values may be shown once.
Tests used:
[1] = system: Phaeomoniella chlamydospora; test: In vitro test in 96-well plates (spore germination, optical density); assay type: cell-based; settings: pos. control 50 μg, Pch, well row E
Protocol: (§1) The lignin particle-solutions were pipetted in various concentrations (1, 5 and 10 μg/mL) into the 96 wells. Several differing nanoparticles were tested (see FIGS. 10 and 12). Afterwards a spore suspension (in minimal medium) of Esca associated fungi, each fungus separately in three wells, was added to the lignin-particle solution. The final volume was 200 μl per well and 500 spores in those 200 μl (means 2,500 spores/mL). The 96-well plate was incubated at 26° C. for 48 h on a shaker with 120 rpm. The optical density was determined after 24 and 48 h using a lab-bench plate reader (BioRad) at a wavelength of 600 nm.
(§2) […] The optical density of the medium without spores was also measured.
(§3) The results of three replicates were afterwards combined to calculate the average value of all samples (see also the standard deviation in FIG. 10).
(§4) The numbers 1 to 10 and the letters A to H are the labeling of the 96-well plate as well as the grid of the test system. The Numbers 66 to 84 are explained as the tested Lignin-particle solutions, they differ in their composition and fungicide concentration (see also Table 2). The optical density is […] to the activity of the fungicide. […] Therefore higher values of the optical density stand for more sporulation and fungal growths and less biological activity of the lignin formulation (e.g., in A1, A2). A low optical density is characteristic for a high fungal toxicity and bioactivity (see in A5 and A6).

[2] = system: Phaeoacremonium aleophilum; test: as above; assay type: cell-based; settings: pos. control 50 μg, Pal, well row F
Protocol: as §1, §2, §3, §4

For CP(=O)(O)CCC(N)C(=O)O (stereo not shown) [Glufosinat-Ammonium], which “optical density measured at 600 nm” value ([1]; first plate block) is on record?
The value was 0.192 and 0.180 and 0.200.

And the “optical density measured at 600 nm” value ([1]; second plate block)?
Its value is 0.201 and 0.192 and 0.203.

And the “optical density measured at 600 nm” value ([2]; first plate block)?
The value was 0.220 and 0.212 and 0.206.

And the “optical density measured at 600 nm” value ([2]; second plate block)?
The value was 0.228 and 0.219 and 0.204.

— patent US11311010B2, “Lignin biomaterial as agricultural drug carrier” (Max-Planck-Gesellschaft zur Förderung der Wissenschaften …, priority 2016, dated 2022)
